# Measurements taken from publication PMC12655185 (Pharmaceuticals, 2025).
# Where a SMILES comes first, the peptide text is derived from it. [ ]: non-standard residue; d: D form. The star is where a group is joined. X1 = O=C(O)CN1CCN(CC(=O)O)CCN([C@H](CCC(=O)*)C(=O)O)CC1; Sar = CNCC(=O)O
# Experiments:
# [1] = LogD7.4 determination (octanol/PBS); format: physicochemical; conditions: octanol / PBS pH 7.4
# Description: The obtained solutions from ^67Ga labeling were diluted with water in a 1:1 ratio and brought to pH 7 using aqueous NaOH (1 M). For LogD7.4 determination, 10 μL of neutralized labeling solution was diluted with 290 μL 1× PBS (pH 7.4) and 300 μL 1-Octanol (both pre-saturated by each other). The mixture was vortexed vigorously for 30 s and subsequently centrifuged for 5 min at 16,100 rcf. Defined volumes of each layer (10 μL for PBS, 200 μL for Octanol) were taken and analyzed for their radioactivity (ISOMED 100, Nuvia, Frankfurt, Germany). The partition coefficient LogD7.4 was determined from the decadic logarithm of the fraction of the radioactivity content of the aqueous and octanol layers.
# [2] = Stability in human serum (radio-HPLC, LC-MS); format: in vitro ADME; conditions: for remaining at 24 h: read-out: radioligand intact after 24 h in human serum
# Description: For human serum stability investigation, 60 μL of the ^67Ga labeling mixture was mixed with 540 μL human serum and incubated at 37 °C. Aliquots of 25 μL were taken after 1, 2, 4 and 24 h. The aliquots were mixed with 75 μL of a mixture called “Supersol” (20% v/v EtOH, 0.5% Triton X-100, 5 mM EDTA, 0.5 mM o-phenantroline, and 0.1% saponine in water) and put on ice for 5 min. Subsequently, the mixtures were centrifuged at 16,100 rcf, 4 °C for 5 min. The supernatant was analyzed by analytical radio-HPLC. Serum half-lives were determined by non-linear regression according to one-phase decay. To determine the stability in labeling buffer, the labeling mixture was left at ambient temperature for 4 h. Subsequently, an aliquot of 5 μL was mixed with 45 μL of Supersol and analyzed with analytical radio-HPLC.
# Analytical radio-HPLC was performed on a modular unit consisting of an operating unit (smartline manager 500, Knauer, Berlin, Germany), a pump unit (smartline pump 1000, Knauer, Berlin, Germany), a photo diode array detector (smartline PDA 2800, Knauer, Berlin, Germany) and a γ-detector (Ramona Star, Raytest, Lüttich, Belgium). The system was operated by the software Chromgate 2.8. Chromatography was conducted on a C18 column (Eurospher 100-5, 250 × 4 mm, Knauer, Berlin, Germany) at a flow rate of 1 mL/min.
# human serum = conditions: up to 24 h
logD [1],remaining at 24 h ([2]; 37 °C),Molecule,other results
-4.79 ± 0.03,89%,"CC[C@H](C)[C@H](NC(=O)[C@H](CC(N)=O)NC(=O)[C@@H]1CCCN1C(=O)[C@@H]1CCCN1C(=O)[C@H](CCCNC(=N)N)NC(=O)[C@H](CC(=O)O)NC(=O)[C@H](CC(N)=O)NC(=O)[C@@H](N)CO)C(=O)N[C@@H](CC(C)C)C(=O)N[C@@H](CCC(N)=O)C(=O)N[C@@H](CCCCN)C(=O)N[C@@H](CCCNC(=N)N)C(=O)N(C)CC(=O)N(C)CC(=O)N(C)CC(=O)N[C@@H](CCCCNC(=O)CC[C@H](C(=O)O)N1CCN(CC(=O)O)CCN(CC(=O)O)CC1)C(N)=O [TJ12P2(K^11)-X3K-[^67Ga]Ga-NODA-GA-CONH2, metal not drawn] (H-SNDRPPNILQKR[Sar][Sar][Sar]K(X1)-NH2)",–
-4.61 ± 0.05,95%,"CC[C@H](C)[C@H](NC(=O)[C@H](CC(N)=O)NC(=O)[C@@H]1CCCN1C(=O)[C@@H]1CCCN1C(=O)[C@H](CCCNC(=N)N)NC(=O)[C@H](CC(=O)O)NC(=O)[C@H](CC(N)=O)NC(=O)[C@@H](N)CO)C(=O)N[C@@H](CC(C)C)C(=O)N[C@@H](CCC(N)=O)C(=O)N[C@@H](CCC(N)=O)C(=O)N[C@@H](CCCNC(=N)N)C(=O)N(C)CC(=O)N(C)CC(=O)N(C)CC(=O)N[C@@H](CCCCNC(=O)CC[C@H](C(=O)O)N1CCN(CC(=O)O)CCN(CC(=O)O)CC1)C(N)=O [TJ12P2(Q^11)-X3K-[^67Ga]Ga-NODA-GA-CONH2, metal not drawn] (H-SNDRPPNILQQR[Sar][Sar][Sar]K(X1)-NH2)",–
-4.78 ± 0.05,–,"CC[C@H](C)[C@H](NC(=O)[C@H](CC(N)=O)NC(=O)[C@@H]1CCCN1C(=O)[C@@H]1CCCN1C(=O)[C@H](CCCNC(=N)N)NC(=O)[C@H](CC(=O)O)NC(=O)[C@H](CC(N)=O)NC(=O)[C@H](CO)NC(=O)CC[C@H](C(=O)O)N1CCN(CC(=O)O)CCN(CC(=O)O)CC1)C(=O)N[C@@H](CC(C)C)C(=O)N[C@@H](CCC(N)=O)C(=O)N[C@@H](CCCCN)C(=O)N[C@@H](CCCNC(=N)N)C(=O)O [[^67Ga]Ga-NODA-GA-TJ12P2(K^11), metal not drawn] (X1-SNDRPPNILQKR-OH)","remaining at 1 h ([2]; 37 °C, 1 h, read-out: radioligand intact after 1 h in human serum): 9.3%; half-life ([2]; human, serum, 37 °C, one-phase decay): 17.4 min; degradation product in human serum ([2]; radio-HPLC or LC-MS after 24 h): formation of a single metabolite"
-4.79 ± 0.03,72%,"CC[C@H](C)[C@H](NC(=O)[C@H](CC(N)=O)NC(=O)[C@@H]1CCCN1C(=O)[C@@H]1CCCN1C(=O)[C@H](CCCNC(=N)N)NC(=O)[C@H](CC(=O)O)NC(=O)[C@H](CC(N)=O)NC(=O)[C@H](CO)NC(=O)CC[C@H](C(=O)O)N1CCN(CC(=O)O)CCN(CC(=O)O)CC1)C(=O)N[C@@H](CC(C)C)C(=O)N[C@@H](CCC(N)=O)C(=O)N[C@@H](CCC(N)=O)C(=O)N[C@@H](CCCNC(=N)N)C(=O)O [[^67Ga]Ga-NODA-GA-TJ12P2(Q^11), metal not drawn] (X1-SNDRPPNILQQR-OH)",–
–,–,SNDRPPNILQQRXXXK(NODA-GA),not cleaved (human serum; 37 °C): 95% still intact after 24 h
–,–,SulfoCy3-SNDRPPNILQKR,cleaved bond (human serum): Lys11-arginine
